Reference: patent US20250248979A1, “NOVEL GPX4 INHIBITORS AND USES THEREOF” (THE TRUSTEES OF COLUMBIA UNIVERSITY IN THE CITY OF NEW YORK, priority 2022, published 2025)
Like-named read-outs stand apart in the source and are kept apart here.

Assays:
GPX4 = target: T1, GPX4 (Homo sapiens, UniProt P36969); assay: GPX4 activity assay in cell lysates (NADPH-coupled); type: biochemical; set-up: endogenous in cells; host or cells: A-673 cell lysate
T1 sequence (P36969 1-170 isoform P36969-2): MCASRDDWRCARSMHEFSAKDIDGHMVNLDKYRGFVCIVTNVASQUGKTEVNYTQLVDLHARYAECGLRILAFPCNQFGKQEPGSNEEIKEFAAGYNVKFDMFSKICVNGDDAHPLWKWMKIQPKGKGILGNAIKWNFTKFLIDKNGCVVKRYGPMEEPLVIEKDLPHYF
Summary of the method: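 Native GPX4 in lysates of A-673 cells grown with 20 nM sodium selenite; lysate preincubated with compound 45 min at 37 °C in pH 8.0 buffer with 3 mM GSH, 0.5 mM NADPH and glutathione reductase. Reaction started with phosphatidylcholine hydroperoxide; NADPH consumption followed at 340 nm over 25 min; triplicates.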

HT-1080 cells = assay: Cellular dose response assay, HT-1080 with and without Fer-1; type: cell-based, human; settings: for Selectivity: ferroptosis selectivity, IC50 with Fer-1 / IC50; for IC50: Table 10
Text: HT-1080 (human [Homo sapiens] […] fibrosarcoma), A-673 (human [Homo sapiens] […] Ewing's sarcoma), and SK-HEP-1 (human [Homo sapiens] […] hepatic adenocarcinoma), cells were obtained from ATCC. Huh7 (human [Homo sapiens] […] hepatocellular carcinoma), HLF (human [Homo sapiens] […] hepatocellular carcinoma), HepG2 (human [Homo sapiens] […] hepatocellular carcinoma), cells were obtained from the Cancer Cell Bank at Columbia University Irving Medical Center. HT-1080, A-673, Huh-7, and HLF cells were grown in Dulbecco's Modified Eagle Medium (DMEM) supplemented with 10% heat inactivated fetal bovine serum (HI-FBS), 1% non-essential amino acids, and 1% penicillin streptomycin. HepG2 and SK-HEP-1 cells were grown in Eagle's Minimum Essential Medium (EMEM) supplemented with 10% HI-FBS, and 1% penicillin-streptomycin. All cells were cultured at 37° C. and 5% CO2.
HT-1080, HepG2, Huh7, HLF, and SK-HEP-1 cells were seeded into opaque white 384-well plates at 1500 cells per well then incubated at 37° C. with 5% CO2 overnight. The next day, compounds of interest were dissolved in DMSO and 12-point 2-fold dilution series were prepared with and without Fer-1. Cells were treated in triplicate (final DMSO concentration of 0.4% in all wells, including DMSO-only control wells) and incubated for a further 48 hours at 37° C. and 5% CO2. Cell viability was evaluated using CellTiter-Glo (Promega G7573) and luminescence was recorded on a Victor 5 plate reader. Data were analyzed in GraphPad Prism 9 and error bars represent standard deviation values for three technical replicates in a representative experiment.

[1] = with Fer-1, read-out: IC50 (μM) HT1080 + Fer-1
[2] = without Fer-1, read-out: IC50 (μM) HT1080

GPX4% inhibition at 2.5 μM (GPX4; 2.5 μM) [%] | SMILES | also measured
31.4 ± 18.5 | CC=CC(=O)OCC(C)(C)NC(=O)c1nn(C)c2cc(-c3ccc(OC)c(Cl)c3)ccc12 [QW-644] | 
52.0 ± 27.0 | COC(=O)C=CC(=O)OCC(C)(C)NC(=O)c1nn(C)c2cc(-c3ccc(OC)c(Cl)c3)ccc12 [QW-646] | GPX4% inhibition at 5 μM (GPX4): 30.6 ± 12.2%
22.9 ± 12.1 | COc1ccc(-c2ccc3c(C(=O)N4CCC(OC(=O)CCl)C4(C)C)nn(C)c3c2)cc1Cl (stereo not shown) [QW-676] | 
76.9 ± 4.2 | CC(C)Oc1ccc(-c2ccc3c(C(=O)NC(C)(C)COC(=O)CCl)nn(C)c3c2)cn1 [QW-720] | GPX4 inhibitory activity, result in words (GPX4): substantially higher GPX4 inhibitory activities than QW-446
−2.2 ± 5.0 | COc1ccc(-c2ccc3c(NC(=O)C(C)(C)COC(=O)CCl)nn(C)c3c2)cc1Cl [QW-722] | 
−6.6 ± 9.7 | COc1c(Cl)cc(-c2ccc3c(-n4cc(CCOC(=O)CCl)nn4)nn(C)c3c2)cc1Cl [QW-752] | 
18.4 ± 8.3 | Cn1nc(C(=O)NC(C)(C)C(C)(C)OC(=O)CCl)c2ccc(-c3ccc(OC(F)(F)F)c(Cl)c3)cc21 [QW-759] | 
12.0 ± 10.7 | CCOc1ccc(-c2ccc3c(C(=O)NC(C)(C)C(C)(C)OC(=O)CCl)nn(C)c3c2)cc1Cl [QW-765] | 
32.6 ± 7.9 | COc1ncc(-c2ccc3c(C(=O)NC(C)(C)COC(=O)CCl)nn(C)c3c2)cc1F [QW-768] | 
36.2 ± 4.1 | Cn1nc(C(=O)NCC(C)(C)OC(=O)CCl)c2ccc(-c3ccc(N4CCOCC4)c(Cl)c3)cc21 [QW-775] | 
30.4 ± 10.0 | COc1c(Cl)cc(-c2ccc3c(C(=O)NCC(C)(C)OC(=O)CCl)nn(C)c3c2)cc1Cl [QW-778] | 
39.1 ± 17.7 | Cn1nc(C(=O)NCC(C)(C)OC(=O)CCl)c2ccc(-c3ccc(OC(F)(F)F)c(Cl)c3)cc21 [QW-779] | 
−1.0 ± 32.8 | CCOc1ccc(-c2ccc3c(C(=O)NCC(C)(C)OC(=O)CCl)nn(C)c3c2)cc1Cl [QW-782] | 
−172.4 ± 10.3 | COc1ccc(-c2ccc3c(C(=O)NCC(C)(C)OC(=O)CCl)nn(C)c3c2)cc1Br [QW-783] | 
78.5 ± 10.5 | Cn1nc(C(=O)NC(C)(C)COC(=O)CCl)c2ccc(-c3ccc(C(F)(F)F)c(Cl)c3)cc21 [QW-794] | 
80.1 ± 4.7 | COc1c(F)cc(-c2ccc3c(C(=O)NC(C)(C)COC(=O)CCl)nn(C)c3c2)cc1Cl [QW-802] | 
36.3 ± 16.1 | CC(C)Oc1c(Cl)cc(-c2ccc3c(C(=O)NC(C)(C)C(C)(C)OC(=O)CCl)nn(C)c3c2)cc1Cl [QW-808] | 
75.3 ± 14.5 | COc1c(Cl)cc(-c2ccc3c(-n4cc(C(C)(C)COC(=O)CCl)nn4)nn(C)c3c2)cc1C(F)(F)F [QW-817] | 
71.4 ± 6.9 | CC(C)Oc1c(Cl)cc(-c2ccc3c(C(=O)NC(C)(C)COC(=O)CCl)nn(C)c3c2)cc1Cl [QW-820] | 
66.2 ± 5.4 | COc1ccc(-c2ccc3c(C(=O)NC(C)(C)COC(=O)CCl)nn(C)c3c2)c(Cl)c1Cl [QW-826] | 
65.5 ± 5.9 | COc1cc(F)c(-c2ccc3c(C(=O)NC(C)(C)COC(=O)CCl)nn(C)c3c2)cc1Cl [QW-830] | 

More lines, now with the values behind:

SMILES | GPX4% inhibition at 2.5 μM (GPX4; 2.5 μM) [%] | also measured
Cn1nc(C(=O)NC(C)(C)CC(=O)N2CCN(C(=O)CCl)CC2)c2ccc(Br)cc21 [QW-638] |  | GPX4% inhibition at 2.5 μM (GPX4; 2.5 μM, generation 2): 39.0 ± 26.2%
CN(C)CCCOc1ccc(-c2ccc3c(C(=O)NC(C)(C)COC(=O)CCl)nn(C)c3c2)cc1 [QW-647] | 46.9 ± 35.9 | GPX4% inhibition at 5 μM (GPX4): 20.9 ± 14.0%
C=C(CN1CCOCC1)C(=O)NCC(C)(C)NC(=O)c1nn(C)c2cc(Br)ccc12 [QW-648] |  | GPX4% inhibition at 2.5 μM (GPX4; 2.5 μM, generation 2): 15.8 ± 24.7%
Cn1nc(C(=O)NC(C)(C)COC(=O)CCl)c2ccc(-c3cc4cc(F)ccc4n3C(=O)OC(C)(C)C)cc21 [QW-659] | −1.2 ± 15.2 | GPX4% inhibition at 5 μM (GPX4): 8.5 ± 13.4%
Cn1nc(C(=O)N2CCC(OC(=O)CCl)C2(C)C)c2ccc(Br)cc21 (stereo not shown) [QW-673] |  | GPX4% inhibition at 2.5 μM (GPX4; 2.5 μM, generation 2): 41.9 ± 63.4%
CCOc1ccc(-c2ccc3c(-n4cc(C(C)(C)COC(=O)CCl)nn4)nn(C)c3c2)cc1Cl [QW-681] | 31.0 ± 4.9 | 
Cn1nc(C(=O)NC(COC(=O)CCl)C(F)(F)F)c2ccc(Br)cc21 (stereo not shown) [QW-683] |  | GPX4% inhibition at 2.5 μM (GPX4; 2.5 μM, generation 2): −37.4 ± 5.2%
Cn1nc(C(=O)NC(COC(=O)CCl)C(F)(F)F)c2ccc(-c3ccc(N4CCOCC4)c(Cl)c3)cc21 (stereo not shown) [QW-687] | 7.9 ± 2.3 | 
Cn1nc(C(=O)N2CCC(OC(=O)CCl)C2(C)C)c2ccc(-c3ccc(N4CCOCC4)c(Cl)c3)cc21 (stereo not shown) [QW-691] | 30.5 ± 7.4 | 
Cn1nc(-c2nnc(C(C)(OC(=O)CCl)C(F)(F)F)o2)c2ccc(Br)cc21 (stereo not shown) [QW-694] |  | GPX4% inhibition at 2.5 μM (GPX4; 2.5 μM, generation 2): 10.6 ± 5.8%
COc1ccc(-c2ccc3c(-c4nnc(C(C)(OC(=O)CCl)C(F)(F)F)o4)nn(C)c3c2)cc1Cl (stereo not shown) [QW-699] | 2.4 ± 17.3 | 
Cn1nc(-c2nnc(C(C)(OC(=O)CCl)C(F)(F)F)o2)c2ccc(-c3ccc(N4CCOCC4)c(Cl)c3)cc21 (stereo not shown) [QW-700] | −2.2 ± 5.0 | 
Cn1nc(C(=O)N2CCC(OC(=O)CCl)C2(C)C)c2ccc(-c3ccc4c(c3)OCO4)cc21 (stereo not shown) [QW-702] | 23.8 ± 3.7 | 
Cn1nc(C(=O)NC(C)(C)COC(=O)CCl)c2ccc(-c3ccc(OCC(F)(F)F)cc3)cc21 [QW-719] | 2.4 ± 17.3 | GPX4 inhibition rate (GPX4; concentration not given): no inhibition on GPX4
Cn1nc(C(=O)NC(C)(C)COC(=O)CCl)c2ccc(-c3ccc(S(=O)(=O)N4CCC4)cc3)cc21 [QW-724] | 23.8 ± 3.7 | 
Cn1nc(-n2cc(CCOC(=O)CCl)nn2)c2ccc(-c3ccc(N4CCOCC4)c(Cl)c3)cc21 [QW-756] | 41.6 ± 9.0 | 
CC(C)Oc1ncc(-c2ccc3c(-n4cc(C(C)(C)COC(=O)CCl)nn4)nn(C)c3c2)cn1 [QW-760] | 14.6 ± 12.4 | 
Cn1nc(-n2cc(CCOC(=O)CCl)nn2)c2ccc(-c3ccc(OC(F)(F)F)c(Cl)c3)cc21 [QW-764] | 25.4 ± 12.0 | 
Cn1nc(-n2cc(C(C)(C)COC(=O)CCl)nn2)c2ccc(-c3ccc(C(F)(F)F)c(Cl)c3)cc21 [QW-787] | 35.1 ± 29.1 | 
Cn1nc(-n2cc(C(C)(C)CNC(=O)CCl)nn2)c2ccc(-c3ccc(N4CCOCC4)c(Cl)c3)cc21 [QW-793] | −53.4 ± 17.0 | 
COc1ccc(-c2ccc3c(-n4cc(C(C)(C)COC(=O)CCl)nn4)nn(C)c3c2)c(Cl)c1Cl [QW-829] | 68.7 ± 3.6 | 
COc1c(Cl)cc(-c2ccc3c(C(=O)NC(C)(C)COC(=O)CCl)nn(Cc4ccc(Cl)cc4)c3c2)cc1C(F)(F)F [QW-836] |  | GPX4 inhibition (GPX4; 2.5 μM): 50%; GPX4% inhibition at 2.5 μM (GPX4; 2.5 μM, 4th generation): 45.7 ± 17.5%
CCOc1ccc(-c2ccc3c(C(=O)NC(C)(C)COC(=O)CCl)nn(Cc4ccc(Cl)cc4)c3c2)cc1Cl [QW-840] |  | GPX4% inhibition at 2.5 μM (GPX4; 2.5 μM, 4th generation): 80.1 ± 11.8%
COc1c(Cl)cc(-c2ccc3c(C(=O)NC(C)(C)COC(=O)CCl)nn(Cc4ccc(Cl)cc4)c3c2)cc1Cl [QW-843] |  | GPX4% inhibition at 2.5 μM (GPX4; 2.5 μM, 4th generation): 76.8 ± 11.4%
CCCOc1ccc(-c2ccc3c(C(=O)NC(C)(C)COC(=O)CCl)nn(Cc4ccc(Cl)cc4)c3c2)cc1Cl [QW-846] |  | GPX4% inhibition at 2.5 μM (GPX4; 2.5 μM, 4th generation): 91.5 ± 3.9%
COc1ccc(-c2ccc3c(C(=O)NC(C)(C)C(C)(C)OC(=O)CCl)nn(Cc4cc(Cl)cc(Cl)c4)c3c2)cc1Cl [QW-886] |  | Selectivity (HT-1080 cells): 4.5; IC50 (HT-1080 cells; [1]): 55.3 µM; IC50 (HT-1080 cells; [2]): 12.4 µM
CC(C)(NC(=O)c1nn(Cc2cc(Cl)cc(Cl)c2)c2cc(-c3ccc(N4CCOCC4)c(Cl)c3)ccc12)C(C)(C)OC(=O)CCl [QW-887] |  | Selectivity (HT-1080 cells): >174; IC50 (HT-1080 cells; [1]): > 40 µM; IC50 (HT-1080 cells; without Fer-1, read-out: IC50 HT1080): 0.233 µM
COc1ccc(-c2ccc3c(C(=O)NC(C)(C)COC(=O)CCl)nn(Cc4cccc(C(C)=O)c4)c3c2)cc1Cl [QW-892] |  | Selectivity (HT-1080 cells): 1.6; IC50 (HT-1080 cells; [1]): 37.7 µM; IC50 (HT-1080 cells; [2]): 23.7 µM
COc1ccc(-c2ccc3c(C(=O)NC(C)(C)COC(=O)CCl)nn(Cc4ccc(Cl)nc4)c3c2)cc1Cl [QW-897] |  | Selectivity (HT-1080 cells): 7.5; IC50 (HT-1080 cells; [1]): 9 µM; IC50 (HT-1080 cells; [2]): 1.2 µM
CC(C)(COC(=O)CCl)NC(=O)c1nn(Cc2ccc(Cl)nc2)c2cc(-c3ccc(N4CCOCC4)c(Cl)c3)ccc12 [QW-898] |  | Selectivity (HT-1080 cells): 6.8; IC50 (HT-1080 cells; [1]): 8.1 µM; IC50 (HT-1080 cells; [2]): 1.2 µM
